According to patent US8889704B2 (Array BioPharma Inc., priority 2011, dated 2014):
Counter-ions that a name gives are not always drawn.

Tests used:
Type in all cases: biochemical
[1] = target: recombinant rat PIM-3 (Rattus norvegicus, UniProt O70444); test: PIM-3 Assay (as Example A); settings: averaged IC50; 30 μM ATP, 3.75 μM PIM2tide, 0.5 nM PIM-3
How it was run: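 Recombinant rat PIM-3 (0.5 nM) with 3.75 μM PIM2tide and 30 μM [γ-33P]ATP in MOPS pH 7.4 buffer, 60 min at 22 °C; labelled peptide captured on phosphocellulose filters and counted by scintillation. 10-point curve (top dose 10 μM, 2% DMSO); IC50 from 4-parameter fit of percent of control.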

[2] = target: T1, GST-tagged recombinant full-length human Pim-2 (Homo sapiens, UniProt Q9P1W9); test: PIM-2 Assay (as Example A); settings: averaged IC50; 4 μM ATP, 1.0 μM PIM2tide, 1.5 nM Pim-2
T1 construct: GST-tagged recombinant full-length human Pim-2; GST
How it was run: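 Radiometric filter-binding assay: GST-tagged full-length human Pim-2 (1.5 nM) phosphorylates 1.0 μM PIM2tide with 4 μM [γ-33P]ATP for 60 min at 22 °C in pH 7.4 MOPS buffer, 2% DMSO. 10-point 3-fold dilutions from 10 μM top dose; IC50 from 4-parameter fit of percent of control.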

[3] = target: PIM-1 (Homo sapiens, UniProt P11309); test: Enzyme PIM-1 Assay ([33P]ATP incorporation into PIM2tide, filter plate); settings: averaged IC50; 35 μM ATP, 7.5 μM PIM2tide, 0.25 nM PIM-1, 60 min at 22° C.
How it was run: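 Radiometric assay: 0.25 nM PIM-1 phosphorylates 7.5 μM PIM2tide with 35 μM [γ-33P]ATP in 20 mM MOPS pH 7.4, 10 mM MgCl2, 1 mM DTT, 0.005% Tween-20, 60 min at 22 °C. Product captured on P81 filters, scintillation counted; 10-point 3-fold curve from 10 μM top, 2% DMSO, IC50 by 4-parameter logistic fit of POC.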

Sequence of PIM-1 (P11309 whole entry, species assumed): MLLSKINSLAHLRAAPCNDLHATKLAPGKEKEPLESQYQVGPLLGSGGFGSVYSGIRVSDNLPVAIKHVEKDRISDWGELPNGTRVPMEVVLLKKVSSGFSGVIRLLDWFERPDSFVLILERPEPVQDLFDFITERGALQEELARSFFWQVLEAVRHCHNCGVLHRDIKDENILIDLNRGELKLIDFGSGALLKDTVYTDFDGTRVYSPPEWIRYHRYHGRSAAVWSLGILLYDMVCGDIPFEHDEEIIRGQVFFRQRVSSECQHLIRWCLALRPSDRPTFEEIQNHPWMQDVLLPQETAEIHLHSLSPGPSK
T1 sequence (Q9P1W9 whole entry): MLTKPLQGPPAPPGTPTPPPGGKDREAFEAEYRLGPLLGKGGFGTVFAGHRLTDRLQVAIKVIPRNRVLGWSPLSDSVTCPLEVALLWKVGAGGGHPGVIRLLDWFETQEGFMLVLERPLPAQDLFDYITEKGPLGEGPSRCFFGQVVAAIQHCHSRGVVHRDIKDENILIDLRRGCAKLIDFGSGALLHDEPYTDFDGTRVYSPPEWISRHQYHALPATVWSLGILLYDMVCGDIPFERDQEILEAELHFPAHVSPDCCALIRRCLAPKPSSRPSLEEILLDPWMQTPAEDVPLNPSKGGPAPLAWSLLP

SMILES | IC50 [1] | IC50 [2] | IC50 [3]
CCOc1cc2nc(-c3nnc4ccc([C@@H](N5CC[C@H](CN)C5)C(F)(F)F)cn34)ccc2cc1F [Example 280, ((R)-1-((R)-1-(3-(7-ethoxy-6-fluoroquinolin-2-yl)-[1,2,4]triazolo[4,3-a]pyridin-6-yl)-2,2,2-trifluoroethyl)pyrrolidin-3-yl)methanamine hydrochloride] | 2.5 nM | 418 nM | 0.62 nM
CC(C)Oc1cc(F)cc2ccc(-c3nnc4ccc([C@@H](N5CC[C@H](N)C5)C(F)(F)F)cn34)nc12 [Example 86, (S)-1-((R)-2,2,2-trifluoro-1-(3-(6-fluoro-8-isopropoxyquinolin-2-yl)-[1,2,4]triazolo[4,3-a]pyridin-6-yl)ethyl)pyrrolidin-3-amine hydrochloride] | 0.3 nM | 31 nM | 0.14 nM
COc1cccc2ccc(-c3nnc4ccc([C@H](N5CC[C@](C)(N)C5)C(F)(F)F)cn34)nc12 [Example 217, (S)-3-methyl-1-((S)-2,2,2-trifluoro-1-(3-(8-methoxyquinolin-2-yl)-[1,2,4]triazolo[4,3-a]pyridin-6-yl)ethyl)pyrrolidin-3-amine dihydrochloride] | 0.4 nM | 40 nM | 0.32 nM
COC[C@@H](C)Oc1cc(F)cc2ccc(-c3nnc4ccc([C@@H](N5CC[C@H](N)C5)C(F)(F)F)cn34)nc12 [Example 159, (S)-1-((R)-2,2,2-trifluoro-1-(3-(6-fluoro-8-((R)-1-methoxypropan-2-yloxy)quinolin-2-yl)-[1,2,4]triazolo[4,3-a]pyridin-6-yl)ethyl)pyrrolidin-3-amine dihydrochloride] | 0.5 nM | 48 nM | 0.14 nM
CC(C)(CO)c1cc(F)cc2ccc(-c3nnc4ccc([C@@H](N5CC[C@H](N)C5)C(F)(F)F)cn34)nc12 [Example 121, 2-(2-(6-((R)-1-((S)-3-aminopyrrolidin-1-yl)-2,2,2-trifluoroethyl)-[1,2,4]triazolo[4,3-a]pyridin-3-yl)-6-fluoroquinolin-8-yl)-2-methylpropan-1-ol dihydrochloride] | 0.2 nM | 8.7 nM | 0.13 nM
CCOc1cc2nc(-c3nnc4ccc([C@H](N5CC[C@@H](N)C5)C(F)(F)F)cn34)ccc2cc1F [Example 292, (R)-1-((S)-1-(3-(7-ethoxy-6-fluoroquinolin-2-yl)-[1,2,4]triazolo[4,3-a]pyridin-6-yl)-2,2,2-trifluoroethyl)pyrrolidin-3-amine hydrochloride] | 1.1 nM | 68 nM | 0.65 nM
COCCc1ccc2ccc(-c3nnc4ccc([C@@H](N5CC[C@H](N)C5)C(F)(F)F)cn34)nc2c1F [Example 166, (S)-1-((R)-2,2,2-trifluoro-1-(3-(8-fluoro-7-(2-methoxyethyl)quinolin-2-yl)-[1,2,4]triazolo[4,3-a]pyridin-6-yl)ethyl)pyrrolidin-3-amine dihydrochloride] | 8.9 nM | > 100 nM | 1.33 nM
CO[C@H](C)COc1ccc2ccc(-c3nnc4ccc([C@H](N5CC[C@](C)(N)C5)C(F)(F)F)cn34)nc2c1 [Example 305, (S)-3-methyl-1-((S)-2,2,2-trifluoro-1-(3-(7-((R)-2-methoxypropoxy)quinolin-2-yl)-[1,2,4]triazolo[4,3-a]pyridin-6-yl)ethyl)pyrrolidin-3-amine] | 0.4 nM | 71 nM | 0.96 nM
COc1cccc2ccc(-c3nnc4ccc([C@@H](N5CC[C@](N)(CF)C5)C(F)(F)F)cn34)nc12 (single isomer, unassigned) [Example 170] | 6.2 nM | > 100 nM | 0.95 nM
CCOc1cccc2ccc(-c3nnc4ccc([C@@H](N5CC[C@H](N)C5)C(F)(F)F)cn34)nc12 [Example 79, (S)-1-((R)-1-(3-(8-ethoxyquinolin-2-yl)-[1,2,4]triazolo[4,3-a]pyridin-6-yl)-2,2,2-trifluoroethyl)pyrrolidin-3-amine] | 3 nM | 58 nM | 0.16 nM
N[C@H]1CCN([C@H](c2ccc3nnc(-c4ccc5cc(F)cc(OC(F)F)c5n4)n3c2)C(F)(F)F)C1 [Example 228, (S)-1-((R)-1-(3-(8-(difluoromethoxy)-6-fluoroquinolin-2-yl)-[1,2,4]triazolo[4,3-a]pyridin-6-yl)-2,2,2-trifluoroethyl)pyrrolidin-3-amine dihydrochloride] | 3.8 nM | 916 nM | 0.79 nM
CC(C)NC(=O)c1ccc2ccc(-c3nnc4ccc([C@@H](N5CC[C@H](N)C5)C(F)(F)F)cn34)nc2c1 [Example 34, 2-(6-((R)-1-((S)-3-aminopyrrolidin-1-yl)-2,2,2-trifluoroethyl)-[1,2,4]triazolo[4,3-a]pyridin-3-yl)-N-isopropylquinoline-7-carboxamide dihydrochloride] | 0.3 nM | 41 nM | 0.2 nM
CC(C)Oc1cccc2ccc(-c3nnc4ccc([C@@H](N5CC[C@@](N)(CF)C5)C(F)(F)F)cn34)nc12 (single isomer, unassigned) [Example 154, dihydrochloride] | 4.2 nM | > 100 nM | 0.58 nM
COCc1cccc2ccc(-c3nnc4ccc([C@@H](N5CC[C@H](N)C5)C(F)(F)F)cn34)nc12 [Example 185, (S)-1-((R)-2,2,2-trifluoro-1-(3-(8-(methoxymethyl)quinolin-2-yl)-[1,2,4]triazolo[4,3-a]pyridin-6-yl)ethyl)pyrrolidin-3-amine dihydrochloride] | 1 nM | > 100 nM | 0.37 nM
COCCOc1ccc2ccc(-c3nnc4ccc([C@@H](N5CC[C@H](N)C5)C(F)(F)F)cn34)nc2c1F [Example 179, (S)-1-((R)-2,2,2-trifluoro-1-(3-(8-fluoro-7-(2-methoxyethoxy)quinolin-2-yl)-[1,2,4]triazolo[4,3-a]pyridin-6-yl)ethyl)pyrrolidin-3-amine dihydrochloride] | 4.1 nM | > 100 nM | 2.44 nM
COC[C@@H](C)Oc1ccc2ccc(-c3nnc4ccc([C@H](N5CC[C@](C)(N)C5)C(F)(F)F)cn34)nc2c1 [Example 315, (S)-3-methyl-1-((S)-2,2,2-trifluoro-1-(3-(7-(((R)-1-methoxypropan-2-yl)oxy)quinolin-2-yl)-[1,2,4]triazolo[4,3-a]pyridin-6-yl)ethyl)pyrrolidin-3-amine] | 0.4 nM | 25.7 nM | 0.19 nM
CC(C)Oc1cccc2ccc(-c3nnc4ccc([C@H](N5CC[C@@](C)(N)C5)C(F)(F)F)cn34)nc12 [Example 90, (R)-3-methyl-1-((S)-2,2,2-trifluoro-1-(3-(8-isopropoxyquinolin-2-yl)-[1,2,4]triazolo[4,3-a]pyridin-6-yl)ethyl)pyrrolidin-3-amine dihydrochloride] | 23 nM | > 100 nM | 2.26 nM
CC(C)(C)c1cccc2ccc(-c3nnc4ccc([C@@H](N5CC[C@](N)(CO)C5)C(F)(F)F)cn34)nc12 [Example 189, ((R)-3-amino-1-((R)-1-(3-(8-tert-butylquinolin-2-yl)-[1,2,4]triazolo[4,3-a]pyridin-6-yl)-2,2,2-trifluoroethyl)pyrrolidin-3-yl)methanol dihydrochloride] | 1.5 nM | 85 nM | 0.57 nM
N[C@H]1CCN([C@H](c2ccc3nnc(-c4ccc5cc(F)c(OC6CCOCC6)cc5n4)n3c2)C(F)(F)F)C1 [Example 156, (S)-1-((R)-2,2,2-trifluoro-1-(3-(6-fluoro-7-(tetrahydro-2H-pyran-4-yloxy)quinolin-2-yl)-[1,2,4]triazolo[4,3-a]pyridin-6-yl)ethyl)pyrrolidin-3-amine hydrochloride] | 0.4 nM | 38 nM | 0.15 nM
CC(C)C(=O)Nc1ccc2ccc(-c3nnc4ccc(C(N5CC[C@H](N)C5)C(F)(F)F)cn34)nc2c1 (stereo partly drawn) [Example 44, N-(2-(6-(1-((S)-3-aminopyrrolidin-1-yl)-2,2,2-trifluoroethyl)-[1,2,4]triazolo[4,3-a]pyridin-3-yl)quinolin-7-yl)isobutyramide] | 0.2 nM | 29 nM | 0.13 nM
FC(F)(F)[C@@H](c1ccc2nnc(-c3ccc4ccc(Cl)cc4n3)n2c1)N1C[C@@H]2C[C@H]1CN2 [Example 64, 2-(6-((R)-1-((1S,4S)-2,5-diazabicyclo[2.2.1]heptan-2-yl)-2,2,2-trifluoroethyl)-[1,2,4]triazolo[4,3-a]pyridin-3-yl)-7-chloro quinoline dihydrochloride] | 14 nM | > 100 nM | 9.33 nM
CC(C)Oc1cccc2ccc(-c3nnc4ccc([C@@H](N5C[C@@H](N)[C@H](O)C5)C(F)(F)F)cn34)nc12 [Example 146, (3R,4R)-4-amino-1-((R)-2,2,2-trifluoro-1-(3-(8-isopropoxyquinolin-2-yl)-[1,2,4]triazolo[4,3-a]pyridin-6-yl)ethyl)pyrrolidin-3-ol dihydrochloride] | 0.3 nM | 34 nM | 0.13 nM
